Test results published in patent US11925643B2, “Toll-like receptor 4 (TLR4) inhibitors and use thereof” (MOR RESEARCH APPLICATIONS LTD., priority 2018, dated 2024).
Residues, ends and D or L forms follow the SMILES beside them.

Assays:
[1] = test system: TLR4 mRNA; experiment: TLR4 mRNA level by RT-qPCR in hypoxic cardiomyocytes; type: cell-based; conditions: hypoxic conditions
Protocol: Real-time RT-PCR experiments were performed in duplicates on an ABI 7900 instrument (Applied Biosystems™) using Taqman™ Master Mix (Applied Biosystems™). The average threshold cycles (Ct) of the duplicates were used to calculate the relative expression levels of the following genes: TLR4 (Applied Biosystems™ assay primer ID: Mm00569848_m1 Tlr4), TLR2 (assay primer ID: Mm01769726_m1 Tlr2), TNF-α (assay primer ID: Mm00443260_g1 Tnf) and IL-1β (assay primer ID: Mm00434228_m1 II1b) in vitro and in vivo following hypoxia or ischemia, respectively. The reference gene was TBP and the primer used was derived from mouse TATA-box binding protein (Applied Biosystems™ assay primer ID: Mm00446973_m1 Tbp). Amounts of TLR2, TLR4, TNF-α and IL-1β mRNAs in each sample were calculated relative to TBP mRNA, based on the corresponding Cts, as Relative Quantity (RQ) values, and normalized taking as 1 a randomly selected sample of the control group (TBP mRNA). Calculation were performed using the Applied Biosystems Analysis™ software (StepOnePlus V2.2.2). All mRNA scores are presented in arbitrary units.
Next, peptidomimetics of SEQ ID NOs:1 and 2 were tested for their ability to affect the expression of TLR4. The level of TLR4 mRNA was measured by real-time reverse transcriptase polymerase chain reaction (RT-qPCR) method as described in Materials and Methods. The possible effect of both compounds on expression levels of TLR2 mRNA was used as a negative control.

[2] = test system: primary cardiomyocytes; experiment: CK and LDH release by primary cardiomyocytes under LPS treatment (sepsis like); type: cell-based, Rat; conditions: LPS treatment; 20 μM
Protocol: Rat hearts (1-2 days old) were removed under sterile conditions and washed three times in phosphate-buffered saline (PBS) to remove excess blood cells. The hearts were minced and then gently agitated in RBD (a solution of proteolytic enzymes (Biological Institute, Ness-Ziona, Israel) prepared from fig tree extract, and diluted 1:100 in Ca^2+- and Mg^2+-free PBS) for a few cycles of 10 min each. Dulbecco's modified Eagle's medium (Biological Industries, Kibbutz Beit Haemek, Israel) containing 10% horse serum was added to supernatant suspensions containing the dissociated cells. The mixture was centrifuged at 1400 rpm for 4 min. The supernatant phase was discarded, and the cells were re-suspended. The cell suspension was diluted to 1.0×10^6 cells/ml, unless stated otherwise, and 1.5 ml of the suspension was placed in 35-mm plastic culture dishes collagen- or gelatin-coated, or on coated cover glasses. The cultures were incubated in a humidified atmosphere of 5% CO2 and 95% air at 37° C.
Primary cardiomyocytes which were obtained by method described above, were treated with exemplary decoy peptides described herein. After 30 minutes of incubation, sepsis like (LPS treatment for 6 hours), or myocardial infarction (MI) like (hypoxia for 3 hours) conditions were imposed to measure the release of CK and LDH to the medium and determine the potential cardioprotective effect of the tested decoy peptides. Cytotoxicity and level of cell damage were assessed by spectrophotometric measurement of lactate dehydrogenase (LDH) and creatine kinase (CK) activities (at 30° C.). Results are presented as CK and LDH release in arbitrary units (a.u.)
Activity of LDH and CK was determined in the cell-culture medium (25 μl) transferred into 96-well plates, using commercial L-LDH/CK kits (such as those manufactured, e.g., by Sigma-Aldrich, BioVision™ or Thermo Fisher Scientific®).
Primary cardiomyocytes were treated with peptides and peptidomimetics of SEQ ID NOs:1-7 provided at concentrations ranging from 1 μM to 20 μM. Following 30 minutes of incubation, sepsis like (LPS treatment for 6 hours) or MI like (hypoxia for 3 hours) conditions were induced to determine the potential cardioprotective effect of the tested compounds. Creatine kinase (CK) and lactate dehydrogenase (LDH) activity were assayed to determine the level of cellular damage and cell protection effect. The experimental procedure is described in Materials and Methods above. Results are presented as CK and LDH release in arbitrary units (a.u.).

SMILES	inhibition of TLR4 mRNA production [1] [fold]	CK release [2]	LDH release [2]	TLR4 mRNA expression level [1]
CCCCCCCCNc1nc(=O)n(Cc2ccccc2)cc1C [PM6, 1-benzyl-5-methyl-4-(octylamino)pyrimidin-2(1H)-one]	~3.3	no significant effect	no significant effect	–
CC[C@H](C)[C@H](NC(C)=O)C(=O)N[C@H](C(=O)N[C@@H](Cc1ccccc1)C(=O)N[C@@H](C)C(N)=O)C(C)C [SEQ ID NO:1, (2S,3S)-2-acetamido-N-((S)-1-(((S)-1-(((S)-1-amino-1-oxopropan-2-yl)amino)-1-oxo-3-phenylpropan-2-yl)amino)-3-methyl-1-oxobutan-2-yl)-3-methylpentanamide] (Ac-IVFA-NH2)	–	subnormal levels	subnormal levels	significantly decreased
